The record followed here is publication PMC9564337, “Development of a Neurotensin-Derived ^68Ga-Labeled PET Ligand with High In Vivo Stability for Imaging of NTS1 Receptor-Expressing Tumors” (Cancers, 2022).

Usually logD stands for the decadic logarithm of the distribution of all forms, ionised or not, between an organic phase and buffer at a given pH. A lower logD goes with lower lipophilicity. As a reminder, the tissue uptake is the percentage of the injected dose found per gram of tissue.

A short description of one series: physchem. The class given is physicochemical. To be noted: pH 7.4. Here is the method: The distribution coefficients logD7.4 of the radiotracers [^68Ga]21, [^68Ga]33, [^68Ga]37 and [^68Ga]56 were determined by adding a solution of the tracer in PBS (100 μL, ca. 0.20–0.34 MBq) to a mixture of n-octanol (500 μL) and PBS (pH 7.4) (400 μL) in a 2-mL HPLC vial (Agilent, article number 5182-0714) with a screw cap equipped with a septum (Agilent, article number 5182-0717). After vortexing the mixture for 2 min, two 100 μL aliquots of the upper phase (n-octanol) were taken. To obtain a sample of the lower phase (PBS), the HPLC vial was held upside down and approximately 100–150 µL of the aqueous phase were removed using a syringe equipped with a canula and collected in a reaction vessel. Two 10 µL aliquots of the aqueous phase were subjected to measurement. The activity of the aliquots was measured with a Canberra Genie 2000 system (Canberra, Rüsselsheim, Germany) using the Gamma Acquisition & Analysis Software Genie 2000 3.4.1. Experiments were performed in triplicate. The decay-corrected counts per minute (cpm) values were averaged (n = 3) and transformed to a distribution coefficient logD7.4 according to logD7.4 = log(Aoctanol/Aaqueous), where Aoctanol is the mean of the decay-corrected cpm values obtained for samples of the n-octanol phase, and Aaqueous is the mean of the decay-corrected cpm values obtained for samples of the aqueous phase.

The next series in a line: in vivo. To be noted: female, NMRI nude (nu/nu), mouse, total radioactivity; for tissue to tissue ratio at 0.75 h: iv, tumor-to-muscle ratio. Here is the method: (§1) 8–12 weeks old female NMRI nude (nu/nu) mice (body weight 22–32 g) (Charles River, Sulzfeld, Germany) were kept under specified pathogen free (SPF) conditions at 23 °C, 55% relative humidity and a 12 h light/dark cycle in the central animal facility of the University of Regensburg using type III cages from Tecniplast (Hohenpeißenberg, Germany). The animals took food (Ssniff, Soest, Germay) and autoclaved tap water ad libitum. For tumor cell implantation, the culture medium of HT-29 cells was removed, the cells were detached from the culture flask by incubation for 2 min in trypsin-EDTA and the suspension was centrifuged (5 min, rt, 164 g). The supernatant was removed, and the cell pellet was washed twice with sterile PBS or serum-free medium (5–6 mL). The cells were resuspended in sterile PBS to a final density of 1 × 10^7 cells/mL. Mice were injected subcutaneously into the right flank with the HT-29 cell suspension (100 µL). After 2–4 weeks, when the tumors had reached a size of 50–500 mm^3, animals were used for biodistribution and PET/computed tomography (CT) imaging studies (note: for PET/CT studies, the tumor size was at least 200 mm^3).
(§2) Aliquots of the tracer stock were diluted in PBS to give a volume of 200 µL. 80–100 µL (0.9–5.9 MBq) of this solution were injected into anesthetized HT-29 tumor-bearing nude mice via the tail vein. Animals were kept on a heating plate (set to 40 °C) or a pre-heated (ca. 45 °C) gel cushion and were killed by cardiac puncture 10 min, 25 min or 45 min p.i. immediately followed by taking blood, urine and tissue (i.e., tumor, kidney, liver, gall bladder, spleen, small intestine, heart, lung, brain, pancreas, femur and muscle) samples. Radioactivity measurement of the samples was performed with the Canberra Genie 2000 system described for the determination of the distribution coefficient logD7.4. Decay-corrected measured activities (cpm) were converted into activities (MBq) on the basis of an activity measurement with a ^68Ge-calibration standard source (Eckert&Ziegler, Berlin, Germany). Sample activities were converted to percentage of injected dose per gram tissue (%ID/g). Blocking experiments were performed by co-injection of the tracer with NTS1R ligand 48 (ca. 700 nmol per mouse). Mice were killed 45 min p.i. and analyzed as described above. The animals used for the 45-min biodistribution experiments were the same as used for the PET/CT imaging studies.

Series [1] concerns HT-29 tumor-bearing nude mice. Briefly: in vivo. The settings on record: mouse. Here is the method:
as §1, §2

The mark [2] stands for this setting: Uptake (%ID/g) gall bladder (bile).
Where [3] appears, read: female, NMRI nude (nu/nu), 0.75 h.

With `CC[C@H](C)[C@H](NC(=O)[C@@H](NC(=O)[C@@H]1CCCN1C(=O)[C@H](CCCNC(=N)N)NC(=O)[C@H](CCCNC(N)=NC(=O)NCCCCNC(=O)CN1CCN(CC(=O)O)CCN(CC(=O)O)CCN(CC(=O)O)CC1)NC)C(C)(C)c1ccc(O)cc1)C(=O)N[C@@H](CC(C)C)C(=O)O` [[^68Ga]56, metal not drawn], in “physchem”, the logD is -3.06. The tissue uptake at 10 min in “in vivo” (Uptake (%ID/g) blood) was 3.1 ± 0.34 %ID/g; in “in vivo” (Uptake (%ID/g) brain), 0.079 ± 0.017 %ID/g; in the series “in vivo” (Uptake (%ID/g) femur), 0.95 ± 0.25 %ID/g; in the series “in vivo” (setting [2]), 1.1 ± 0.71 %ID/g; in the series “in vivo” (Uptake (%ID/g) heart), 1.2 ± 0.1 %ID/g; in “in vivo” (Uptake (%ID/g) intestine) it was 1.8 ± 0.22 %ID/g. Also, the tissue uptake at 10 min in the series “in vivo” (Uptake (%ID/g) kidney) came to 47 ± 3.4 %ID/g; in the series “in vivo” (Uptake (%ID/g) liver) it was 7.2 ± 0.83 %ID/g; in “in vivo” (Uptake (%ID/g) lung) it was 2.4 ± 0.3 %ID/g; in the series “in vivo” (Uptake (%ID/g) muscle), 1.1 ± 0.18 %ID/g; in the series “in vivo” (Uptake (%ID/g) pancreas), 1.3 ± 0.83 %ID/g; in “in vivo” (Uptake (%ID/g) spleen) it was 2.5 ± 0.25 %ID/g. For the same compound, in the series “in vivo” (Uptake (%ID/g) tumor), the tissue uptake at 10 min was found to be 3.6 ± 0.2 %ID/g. The tissue uptake at 25 min in “in vivo” (Uptake (%ID/g) blood) amounted to 2.9 ± 1.3 %ID/g; in “in vivo” (Uptake (%ID/g) brain), 0.13 ± 0.11 %ID/g; in “in vivo” (Uptake (%ID/g) femur) it was 0.78 ± 0.27 %ID/g; in “in vivo” (setting [2]) it was 1.9 ± 0.79 %ID/g; in the series “in vivo” (Uptake (%ID/g) heart), 1.3 ± 0.49 %ID/g; in “in vivo” (Uptake (%ID/g) intestine), 2.4 ± 0.68 %ID/g. Also, the tissue uptake at 25 min in “in vivo” (Uptake (%ID/g) kidney) is 47 ± 7 %ID/g; in the series “in vivo” (Uptake (%ID/g) liver), 5.7 ± 1.6 %ID/g; in the series “in vivo” (Uptake (%ID/g) lung), 2.8 ± 1.5 %ID/g; in the series “in vivo” (Uptake (%ID/g) muscle), 0.57 ± 0.23 %ID/g; in the series “in vivo” (Uptake (%ID/g) pancreas), 1.1 ± 1.1 %ID/g; in the series “in vivo” (Uptake (%ID/g) spleen), 2.6 ± 0.6 %ID/g. The tissue uptake at 25 min in the series “in vivo” (Uptake (%ID/g) tumor) came out at 7.3 ± 1.8 %ID/g. The tissue uptake at 0.75 h in “in vivo” (Uptake (%ID/g) blood) is 1.3 ± 0.33 %ID/g; in the series “in vivo” (Uptake (%ID/g) brain), 0.061 ± 0.049 %ID/g; in the series “in vivo” (Uptake (%ID/g) femur), 0.73 ± 0.29 %ID/g; in the series “in vivo” (Uptake (%ID/g) heart), 0.72 ± 0.36 %ID/g; in the series “in vivo” (Uptake (%ID/g) kidney), 55 ± 28 %ID/g; in the series “in vivo” (Uptake (%ID/g) lung) it was 1.2 ± 0.34 %ID/g. In addition, the tissue uptake at 0.75 h in “in vivo” (Uptake (%ID/g) muscle) came out at 0.55 ± 0.23 %ID/g; in “in vivo” (Uptake (%ID/g) pancreas), 0.9 ± 0.57 %ID/g. In series [1] (setting [3]), the “Uptake (%ID/g) blood” value is reported as 1.4 ± 1.0 %ID/g. For the same compound, the “Uptake (%ID/g) brain” value in series [1] (setting [3]) is listed as 0.10 ± 0.074 %ID/g. Besides, in series [1] (setting [3]), the “Uptake (%ID/g) femur” value is given as 0.65 ± 0.43 %ID/g. For the same compound, in series [1] (setting [3]), the “Uptake (%ID/g) heart” value was determined as 0.60 ± 0.44 %ID/g. Besides, in series [1] (setting [3]), the “Uptake (%ID/g) kidney” value came to 53 ± 27 %ID/g. Also, in series [1] (setting [3]), the “Uptake (%ID/g) muscle” value was 0.68 ± 0.61 %ID/g. The “Uptake (%ID/g) pancreas” value in series [1] (setting [3]) is given as 0.51 ± 0.37 %ID/g.

`CN[C@@H](CCCNC(N)=NC(=O)NCCOCCOCCNC(=O)[C@@H](Cc1ccc(-c2ccc(F)cc2)cc1)NC(=O)CCCCCNC(=O)CN1CCN(CC(=O)O)CCN(CC(=O)O)CCN(CC(=O)O)CC1)C(=O)N[C@@H](CCCNC(=N)N)C(=O)N1CCC[C@H]1C(=O)N[C@@H](Cc1ccc(O)cc1)C(=O)N[C@H](C(=O)N[C@@H](CC(C)C)C(=O)O)C(C)(C)C` [[^68Ga]33, metal not drawn] yielded a logD in “physchem” of -2.48. Also, the tissue to tissue ratio at 0.75 h in “in vivo” turned out to be 4.1 ± 1.7. Moreover, the tissue uptake at 0.75 h in the series “in vivo” (Uptake (%ID/g) blood) was 1.3 ± 0.29 %ID/g; in “in vivo” (setting [2]), 2 ± 0.14 %ID/g; in “in vivo” (Uptake (%ID/g) kidney), 10 ± 0.96 %ID/g; in “in vivo” (Uptake (%ID/g) liver), 16 ± 2.2 %ID/g; in “in vivo” (Uptake (%ID/g) muscle), 0.41 ± 0.17 %ID/g; in the series “in vivo” (Uptake (%ID/g) tumor), 1.5 ± 0.22 %ID/g. Further, in series [1], the tumor-to-muscle ratio is 4.1.

Turning to `CN[C@@H](CCCNC(N)=NC(=O)NCCCCNC(=O)CN1CCN(CC(=O)O)CCN(CC(=O)O)CCN(CC(=O)O)CC1)C(=O)N[C@@H](CCCNC(=N)N)C(=O)N1CCC[C@H]1C(=O)N[C@@H](Cc1ccc(O)cc1)C(=O)N[C@H](C(=O)N[C@@H](CC(C)C)C(=O)O)C(C)(C)C` [[^68Ga]21, metal not drawn], in “physchem”, the logD is -3.87. Also, the tissue to tissue ratio at 0.75 h in the series “in vivo” turned out to be 9.5 ± 3.7. In addition, the tissue uptake at 0.75 h in “in vivo” (Uptake (%ID/g) blood) is 0.63 ± 0.2 %ID/g; in “in vivo” (setting [2]) it was 0.55 ± 0.29 %ID/g; in “in vivo” (Uptake (%ID/g) kidney), 6 ± 1.9 %ID/g; in “in vivo” (Uptake (%ID/g) liver), 0.59 ± 0.17 %ID/g; in “in vivo” (Uptake (%ID/g) muscle), 0.21 ± 0.062 %ID/g; in “in vivo” (Uptake (%ID/g) tumor), 1.9 ± 0.7 %ID/g. Also, in series [1], the tumor-to-muscle ratio stood at 9.5.

In the series “physchem”, `CN[C@@H](CCCNC(N)=NC(=O)NCCOCCOCCNC(=O)[C@@H](Cc1ccc(-c2ccc(F)cc2)cc1)NC(=O)CN1CCN(CC(=O)O)CCN(CC(=O)O)CCN(CC(=O)O)CC1)C(=O)N[C@@H](CCCNC(=N)N)C(=O)N1CCC[C@H]1C(=O)N[C@@H](Cc1ccc(O)cc1)C(=O)N[C@H](C(=O)N[C@@H](CC(C)C)C(=O)O)C(C)(C)C` [[^68Ga]37, metal not drawn] showed a logD of -2.59. Also, the tissue to tissue ratio at 0.75 h in “in vivo” was 3.4 ± 0.71. For the same compound, the tissue uptake at 0.75 h worked out at 1.9 ± 0.34 %ID/g in the series “in vivo” (setting [2]); 7.6 ± 0.39 %ID/g in the series “in vivo” (Uptake (%ID/g) kidney); 4.1 ± 0.79 %ID/g in “in vivo” (Uptake (%ID/g) liver); 0.5 ± 0.18 %ID/g in the series “in vivo” (Uptake (%ID/g) muscle); 1.6 ± 0.19 %ID/g in the series “in vivo” (Uptake (%ID/g) tumor). In series [1], the tumor-to-muscle ratio is 3.4.
